Test results: patent US8481727B2, “Crystals of hydrochloride of pyridazin-3(2H)-one compound and process for production of same” (Nissan Chemical Industries, Ltd., priority 2008, dated 2013)

Test: Dissolution test, paddle method in Japanese Pharmacopoeia (Test Example 1)
Assay type: physicochemical
Settings: about 10 mg in 900 ml test fluid, 50 rpm; dissolution test first fluid (pH 1.2) and second fluid (pH 6.8); sampling at 10, 30, 60 and 120 minutes; UV measurement; compared with A-form crystal
Procedure: About 10 mg of each of A-form crystal (Form A) obtained in Example 1, B-form crystal (Form B) obtained in Example 2 and H-form crystal (Form H) obtained in Example 3 was sampled, and a test was carried out at 50 rpm by the dissolution test method paddle method in Japanese Pharmacopoeia using 900 ml of a test fluid. Upon expiration of 10 minutes, 30 minutes, 60 minutes and 120 minutes after initiation of the test, sampling was carried out, and UV measurements were carried out, whereupon the dissolution ratios were calculated. Here, as the dissolution tester, NTR-VS6P manufactured by TOYAMA SANGYO CO., LTD. was used; as the spectrophotometer, UV-2400PC manufactured by Shimadzu Corporation was used; and as the test fluid, the dissolution test first fluid (pH 1.2) and second fluid (pH 6.8) were used. The results are shown in FIGS. 3 and 4 (the ordinate represents the dissolution ratio (%), and the abscissa represents the dissolution time (minutes)).

## Cl.O=c1[nH]nc(OCCCc2ccc(Cl)cc2)c(NCc2cccnc2)c1Br [B-form crystal, 4-bromo-6-(3-(4-chlorophenyl)propoxy)-5-(pyridin-3-ylmethylamino)pyridazin-3(2H)-one mono-hydrochloride]
  solubility (dissolution ratio): superior to A-form crystal in solubility
